Assay [1] has as its system Leishmania donovani. Nature of the assay: Antileishmanial activity against Leishmania donovani LV9 promastigotes after 72 hrs by MTT assay. The conditions noted are these: LV9, 72 h. The class given is functional, organism-based.
Assay [2] has as its system Trypanosoma brucei brucei. In words: Antitrypanosomal activity against Trypanosoma brucei brucei GVR 35 trypomastigotes after 72 hrs by MTT assay. The class given is functional, organism-based. As to conditions: GVR 35, 72 h. (Tetrazolium assays rely on reduction of a dye to a coloured formazan, in cell work by metabolically active cells.)

Each structure is given as a SMILES string. A value given as a limit tells only on which side of the number the result lay.

Consider `CC(=O)OC[C@H]1O[C@@H](n2cc(C3SCC(=O)N3c3ccc(C)cc3)c(=O)[nH]c2=O)C[C@@H]1OC(C)=O` (some centres undefined), for which the IC50 (commonly the concentration that gives 50% inhibition) in assay [1] was 100 µM; in assay [2], greater than 100 µM.

Turning to `CC(=O)OC[C@H]1O[C@@H](n2cc(C3SCC(=O)N3c3ccc(F)cc3)c(=O)[nH]c2=O)C[C@@H]1OC(C)=O` (some centres undefined), the IC50 was 50 µM in assay [1] and greater than 100 µM in assay [2].

Turning to `CC(=O)OC[C@H]1O[C@@H](n2cc(C3SCC(=O)N3c3ccccc3)c(=O)[nH]c2=O)C[C@@H]1OC(C)=O` (some centres undefined), the IC50 in assay [1] was 50 µM; in assay [2], greater than 100 µM.

Regarding `CC(=O)OC[C@H]1O[C@@H](n2cc(C3SCC(=O)N3c3ccccn3)c(=O)[nH]c2=O)C[C@@H]1OC(C)=O` (some centres undefined), the IC50 in assay [1] and in assay [2] was greater than 100 µM each time.

On to `CC(=O)OC[C@H]1O[C@@H](n2cc(C3SCC(=O)N3c3cccc([N+](=O)[O-])c3)c(=O)[nH]c2=O)C[C@@H]1OC(C)=O` (some centres undefined), for which the IC50 in assay [1] and in assay [2] was greater than 100 µM each time.

For the compound `CC(=O)OC[C@H]1O[C@@H](n2cc(C3SCC(=O)N3c3cccc(Br)n3)c(=O)[nH]c2=O)C[C@@H]1OC(C)=O` (some centres undefined), the IC50 in assay [1] was 50 µM; in assay [2], greater than 100 µM.

As for `CC(=O)OC[C@H]1O[C@@H](n2cc(C3SCC(=O)N3c3ccc(Cl)cc3)c(=O)[nH]c2=O)C[C@@H]1OC(C)=O` (some centres undefined), the IC50 in assay [1] is 25 µM; in assay [2] it was greater than 100 µM.

The record behind these values is ChEMBL document CHEMBL1156103, “Ionic liquid mediated and promoted eco-friendly preparation of thiazolidinone and pyrimidine nucleoside-thiazolidinone hybrids and their antiparasitic activities” (Bioorg Med Chem Lett, 2009).
